The text below walks through data of US12234216B2, “Isotopologues salts, crystalline forms, stereoisomers, of methylone and ethylone and methods of use thereof” (Terran Biosciences Inc., priority 2021, dated 2025).

Where a name gives a salt, the structure may show the parent alone.

Data set [1] is described as follows: Metabolic stability in human liver microsomes. It counts as in vitro ADME. The following applies: human liver microsomes. The method, then:
Pooled liver microsomes are purchased from a reputable commercial supplier. Microsomes are stored at […] prior to use. Microsomes (final protein concentration 0.5 mg/mL), 0.1 M phosphate buffer pH 7.4 and test compound (final substrate concentration 1 μM; final DMSO concentration 0.25%) are preincubated at 37° C. prior to the addition of NADPH (final concentration 1 mM) to initiate the reaction. A minus cofactor control incubation is included for each compound tested where 0.1 M phosphate buffer pH 7.4 is added instead of NADPH (minus NADPH). Two control compounds are included with each species. All incubations are performed singularly for each test compound. Each compound is incubated for 0, 5, 15, 30 and 45 min. The control (minus NADPH) is incubated for 45 min only. The reactions are stopped by transferring incubate into acetonitrile at the appropriate time points, in a 1:3 ratio. The termination plates are centrifuged at 3,000 rpm for 20 min at 4° C. to precipitate the protein.
From a plot of ln peak area ratio (compound peak area/internal standard peak area) against time, the gradient of the line is determined. Subsequently, half-life and intrinsic clearance are calculated using the equations below: Elimination rate constant (k)=(−gradient) Half-life (t½)(min)=0.693/k Intrinsic clearance (CLint)(μL/min/mg protein)=V×0.693/t½ where V=Incubation volume (μL)/Microsomal protein (mg)
Relevant control compounds were assessed, ensuring intrinsic clearance values fall within the specified limits (if available).
(Liver microsomes are vesicles of endoplasmic reticulum, rich in cytochrome P450 enzymes.)

The test system of another data set is Male Sprague-Dawley rats. The experiment in a line: Rat elevated zero-maze model of anxiety. It counts as in vivo. The following applies: for decrease in SAPs compared with chlordiazepoxide / time spent in the open arms compared with chlordiazepoxide: 30 mg/kg ip vs chlordiazepoxide 6 mg/kg ip; for anxiolytic effects compared with chlordiazepoxide: high dose level; for time in the open arms: FIGS. 62-64. The source says:
The rat zero-maze model is a refined alternative to the plus-maze, the most widely used animal model of anxiety, and consists of an elevated annular platform, divided equally into four quadrants. Two opposite quadrants are enclosed by Perspex walls on both the inner and the outer edges of the platform, while the remaining two opposite quadrants are open being enclosed only by a Perspex “lip”. Animals will show a preference for the closed areas, and avoidance of the open sections is assumed to stem from a rodent's natural aversion to open, exposed spaces. The primary index of anxiety, which reflect changes in open arm preference, is the percentage of time spent on the open areas. A reduction in the amount of activity on the open areas is considered to reflect an increase in anxiety. Other, ethologically-based behaviours are also assessed as indices of anxiety. One of the most important is stretched attend postures (SAP) from closed to open quadrants. […] Shepherd, J K; et al., (1994) Behavioural and pharmacological validation of the elevated “zero-maze” as an animal model of anxiety. Psychopharmacol., 116:56-64.
Male Sprague-Dawley 200-250 g (Envigo UK) rats were used. Animals were group-housed (5 per cage; cage size: 40×40×20 cm) in a temperature-controlled environment (22±2° C.), under a 12 h light-dark cycle (lights on: 08:00 hours) for one week prior to testing. Food and water were freely available. Number of animals per group=5. Animals were moved into the experimental room 16-24 hours before testing.
The elevated 0-maze comprises a black Perspex annular platform (105 cm diameter, 10 cm width) elevated to 65 cm above ground level, divided equally into four quadrants. Two opposite quadrants are enclosed by clear red Perspex walls (27 cm high) on both the inner and outer edges of the platform, while the remaining two opposite quadrants are surrounded only by a Perspex “lip” (1 cm high) which serves as a tactile guide to animals on these open areas.
Subjects were weighed and tail marked before being injected. After a specified pre-treatment time, subjects were placed in a closed quadrant and a 5-min test period were recorded on videotape for subsequent analysis. The maze were cleaned with 5% methanol/water solution and dried thoroughly between test sessions. Behavioural measures comprise percentage time spent on the open areas (% TO) and frequency of stretched attend postures (SAP) from closed to open quadrants. Since the control groups were all treated identically with the same vehicle these were combined to increase power. The Chlordiazepoxide groups were also treated identically with the same dose so these were also combined to increase power. Animals are scored as being in the open area when all four paws were in an open quadrant and in the closed area only when all four paws have passed over the open-closed divide. All testing were carried out between 9.00 and 16.00 hours.
For each study, a 1-way ANOVA was conducted across vehicle, CDP, and drug treatment groups. Each group was compared to the vehicle group and a p-value for treatment determined by Fishers Least Significant Difference (LSD) test. This analysis was performed in GraphPad Prism (Version 9). Formulations: […]
Intraperitoneal (IP): Racemic methylone HCl was formulated in Vehicle 1 (Saline) for injection to concentrations of 1, 3 and 6 mg/mL to provide doses of 5, 15 and 30 mg/kg when administered ip in 5 mL/kg dosing volumes.
Intraperitoneal (IP): S-methylone HCl was formulated in Vehicle 1 (Saline) for injection to concentrations of 0.5, 1, 1.5, 3 and 6 mg/mL to provide doses of 2.5, 5, 7.5, 15 and 30 mg/kg when administered ip in 5 mL/kg dosing volumes.
Intraperitoneal (IP): R-methylone HCl was formulated in Vehicle 1 (Saline) for injection to concentrations of 1, 3 and 6 mg/mL to provide doses of 5, 15 and 30 mg/kg when administered ip in 5 mL/kg dosing volumes. […]

Data set [2] concerns participants diagnosed with at least moderate post-traumatic stress disorder (PTSD). The experiment in a line: Double-blind, randomized, placebo-controlled clinical trial of methylone-assisted psychotherapy in PTSD. It counts as in vivo, human. The following applies: for CAPS-5 assessments compared to placebo-treated controls: Intervening Session 1C, 2C, 3C and Study Conclusion; for clinician-rated functional impairment score as measured by SDS / depression as measured by HAM-D: vs placebo-treated controls; for change in CAPS-5 assessment compared to the placebo group: 100-200 mg p.o. initial dose, 3 Experimental Sessions with psychotherapy. The method, then: A multicenter, randomized, double-blind, placebo-controlled trial is conducted to assess the efficacy and safety of methylone-assisted psychotherapy versus psychotherapy with placebo control in participants diagnosed with at least moderate post-traumatic stress disorder (PTSD).
This multicenter, randomized, double-blind, placebo-controlled trial is conducted at various sites in the United States with IRB approval from each study site. A flexible dose of methylone hydrochloride salt or placebo, followed by a supplemental half-dose unless contraindicated by patient's previous response or medical history, is also administered during the Treatment Period with psychotherapy in at least 3 blinded monthly Experimental Sessions. The Supplemental Dose extends the duration of drug effects on the participants during an Experimental Session. Methylone test groups are further subdivided into specific groups receiving only racemic methylone hydrochloride salt, S-methylone hydrochloride salt, or R-methylone hydrochloride salt. An optional Risk Evaluation and Mitigation Strategy (REMS) Protocol may be implemented for the racemic methylone, S-methylone, and placebo-groups. The Treatment Period lasts for approximately 12 weeks. During the Treatment Period, each Experimental Session is followed by three Intervening Sessions of non-drug psychotherapy. Each Experimental Session involves an overnight stay. The Primary Outcome measure, the change in Clinician Administered PTSD Scale for DSM-5 (CAPS-5), is determined by a blinded Independent Rater (IR) pool multiple times throughout the study. The study consists of separate periods for each participant. Initially, prospective participants undergo a Screening Period involving an initial eligibility assessment, a medical history intake, informed consent, and enrollment of eligible participants. Next, a Preparation Period is undertaken for enrolled participants involving medication tapering and clinical baseline assessments to confirm each participant meets enrollment criteria. As part of the Preparation Period, a detailed assessment of co-morbidities to PTSD is recorded. Participants may remain on prescribed courses of selective serotonin reuptake inhibitor (SSRI) or serotonin and norepinephrine reuptake inhibitor (SNRI) treatment. Dosages and/or frequency of administration of a prescribed SSRI or SNRI may be adjusted to fit within study parameters. Participants may be required to taper a prescribed course of medication in order to maintain eligibility within the study. The Treatment Period consists of three monthly Experimental Sessions and associated Intervening Sessions of integrative behavioral psychotherapy. The Treatment Period lasts approximately 12 weeks. Following the Treatment Period is a Follow-up Period and Study Conclusion. During the Follow-up Period and Study Conclusion, participants complete 4 weeks with no study visits, followed by a Study Conclusion visit.
This study compares the effects of three blinded Experimental Sessions of psychotherapy in combination with flexible doses of methylone or placebo administered as described below. Non-drug preparatory and intervening psychotherapy sessions are also included. Patient's weight is determined for dosage calculation. Initial dose is 100 mg unless this will result in a dosage of less than 1.5 mg/kg of patient weight. Initial dose thereby adjusted upward in 25 mg increments to deliver the lowest dose possible of at least 1.5 mg/kg of patient weight. Initial dose for Experimental Session 2 and 3 is cumulative dose calculated by adding the initial dose plus REMS protocol dose used the previous Experimental Session for each patient.
Randomization occurs prior to the initiation of Experimental Session 1. Each participant is provided the next randomized number in a sequence by a blinded study monitor. […]

Where [3] appears, read: specific doses, ip, 30 min pretest.
The mark [4] stands for this setting: specific doses, ip, 30 min pretest, vs chlordiazepoxide 6 mg/kg, FIGS. 65-67.

Consider `Cl.[2H]C([2H])([2H])NC(C)C(=O)c1ccc2c(c1)OCO2` (racemic) [(rac)-Methylone-d3 hydrochloride, 1-(benzo[d][1,3]dioxol-5-yl)-2-((methyl-d3)amino)propan-1-one HCl], for which the “difference in half-life and intrinsic clearance compared with the corresponding non-deuterated methylone hydrochloride” value in data set [1] was “differences in half-life and intrinsic clearance”.
`CN[C@H](C)C(=O)c1ccc2c(c1)OCO2` [(R)-Methylone Hydrochloride, (R)-1-(benzo[d][1,3]dioxol-5-yl)-2-(methylamino)propan-1-one hydrochloride]: the “frequency of SAPs” value in the data set on Male Sprague-Dawley rats (30 mg/kg ip) was “significantly decreasing SAPs”. Moreover, in the data set on Male Sprague-Dawley rats, the “decrease in SAPs compared with chlordiazepoxide” value is “to the same level as chlordiazepoxide”, the “time spent in the open arms compared with chlordiazepoxide” value is on record as “as effective as chlordiazepoxide” and the “anxiolytic effects compared with chlordiazepoxide” value is listed as “anxiolytic effects as effective as chlordiazepoxide”. Further, in the data set with Male Sprague-Dawley rats (5, 15 and 30 mg/kg ip), the “frequency of SAPs, trend with dose” value was “dose dependent decrease in SAPs” and the “time spent in the open arms, trend with dose” value is on record as “dose dependent increase in time spent in the open arms”. Besides, the anxiogenic effect result in the data set on Male Sprague-Dawley rats (any dose (5, 15, 30 mg/kg ip)) is listed as “did not show any anxiogenic effect at any dose”. Also, in the data set with Male Sprague-Dawley rats (ip), the “anxiogenic effects at lower doses” value is reported as “not seen”. The “time in the open arms” value in the data set on Male Sprague-Dawley rats (setting [3]) is recorded as “increase time in the open arms”. The “frequency of SAPs” value with Male Sprague-Dawley rats (setting [4]) is reported as “decreased the frequency of SAPs as effectively as the benzodiazepine chlordiazepoxide”. The “CAPS-5 assessments compared to placebo-treated controls” value in data set [2] is “Significant improvements in CAPS-5 assessments”. In data set [2] (Study Conclusion), the “daytime sleepiness as measured by ESS” value is listed as “significant improvement in lessening daytime sleepiness”, the “clinician-rated functional impairment score as measured by SDS” value is on record as “significant improvement in clinician-rated functional impairment score”, the “depression as measured by HAM-D” value is reported as “significant improvement depression” and the “change in CAPS-5 assessment compared to the placebo group” value is “significant mean reduction in CAPS-5 assessment”. In addition, the adverse anxiogenic incidents entry in data set [2] (compared to placebo-treated controls) is “without a significant increase in adverse anxiogenic incidents”.
In the case of `CN[C@@H](C)C(=O)c1ccc2c(c1)OCO2` [(S)-Methylone Hydrochloride, (S)-1-(benzo[d][1,3]dioxol-5-yl)-2-(methylamino)propan-1-one hydrochloride], the “frequency of SAPs, trend with dose” value in the data set with Male Sprague-Dawley rats (2.5 mg/kg and 5 mg/kg ip) is on record as “dose dependent increase in SAPs”. For the same compound, the “time spent in the open arms, trend with dose” value with Male Sprague-Dawley rats (5 mg/kg, 7.5 mg/kg and 15 mg/kg ip) is recorded as “time spent in the open arms decreased as the dose increased”. Also, in the data set on Male Sprague-Dawley rats (7.5 mg/kg, 15 mg/kg and 30 mg/kg ip), the “frequency of SAPs, trend with dose” value was “dose dependent decrease in SAPS”. Moreover, in the data set on Male Sprague-Dawley rats (30 mg/kg ip), the “overall effect on anxiety” value is listed as “effective anxiolytic on all measures” and the “time spent in the open arms” value is recorded as “time in the open arms increased”. For the same compound, in the data set on Male Sprague-Dawley rats, the “decrease in SAPs compared with chlordiazepoxide” value is “even more effective than chlordiazepoxide at reducing SAPs”, the “time spent in the open arms compared with chlordiazepoxide” value is “as effective as chlordiazepoxide at increasing time spent in the open arms” and the “anxiolytic effects compared with chlordiazepoxide” value was “anxiolytic effects as effective as chlordiazepoxide”. Moreover, the “anxiogenic effects at lower doses” value with Male Sprague-Dawley rats (ip, hydrochloride) is listed as “anxiogenic effects at lower doses”. For the same compound, the “time in the open arms” value in the data set on Male Sprague-Dawley rats (setting [3]) is listed as “increase time in the open arms”. The “frequency of SAPs” value in the data set on Male Sprague-Dawley rats (setting [4]) is “decreased the frequency of SAPs as effectively as the benzodiazepine chlordiazepoxide”. Besides, the “CAPS-5 assessments compared to placebo-treated controls” value in data set [2] is reported as “Significant improvements in CAPS-5 assessments”. In data set [2] (Study Conclusion), the “daytime sleepiness as measured by ESS” value was “significant improvement in lessening daytime sleepiness”; the “total dosage of drug needed for significant mean reduction in CAPS-5, compared to the racemic methylone-treated subgroup” value is listed as “lower total dosage of drug”; the “clinician-rated functional impairment score as measured by SDS” value was “significant improvement in clinician-rated functional impairment score”; the “depression as measured by HAM-D” value is “significant improvement depression”. The “change in CAPS-5 assessment compared to the placebo group” value in data set [2] (Study Conclusion) is on record as “significant mean reduction in CAPS-5 assessment”.
